Measurements reported in the supplement of paper PMC11061612.

Tests used:
Assay in all cases: Bliss excess, mean over the matrix (fraction); higher = more synergy
SH-4 (Melanoma) = test system: SH-4 (Melanoma)
Method in brief: (§1)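 Cell lines grown in DMEM/F12 or RPMI with 10% FBS were plated in 1536-well plates and held 24 hours at 37°C, 5% CO2 before 72 hours of exposure to two-drug dose matrices, with DMSO typically at 0.2%. CellTiter-Glo 2.0 luminescence gave viability, which was converted to inhibition. Vehicle wells were set to 0 and blank wells to 1. Combination Emax is the second-highest inhibition in the matrix, and Bliss excess is the observed combination effect minus the expected EA + EB − EA·EB, where EA and EB are the single-agent effects.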

NCI-H2795 (Mesothelioma) = test system: NCI-H2795 (Mesothelioma)
Method in brief: as §1

[1] = test system: MDA-MB-468 (Breast Carcinoma)
Method in brief: as §1

NCI-H28 (Mesothelioma) = test system: NCI-H28 (Mesothelioma)
Method in brief: as §1

[2] = test system: OC-314 (Ovarian Carcinoma)
Method in brief: as §1

[3] = test system: HO-1-u-1 (Oral Cavity Carcinoma)
Method in brief: as §1

[4] = test system: LoVo (Colorectal Carcinoma)
Method in brief: as §1

[5] = test system: SW1116 (Colorectal Carcinoma)
Method in brief: as §1

[6] = test system: RT-112 (Bladder Carcinoma)
Method in brief: as §1

[7] = test system: CAPAN-1 (Pancreatic Carcinoma)
Method in brief: as §1

NCI-H2461 (Mesothelioma) = test system: NCI-H2461 (Mesothelioma)
Method in brief: as §1

[8] = test system: LU-139 (Small Cell Lung Carcinoma)
Method in brief: as §1

[9] = test system: NCI-H69 (Small Cell Lung Carcinoma)
Method in brief: as §1

[10] = test system: RPMI-6666 (Non-Cancerous)
Method in brief: as §1

HMV-II (Melanoma) = test system: HMV-II (Melanoma)
Method in brief: as §1

[11] = test system: SU-DHL-6 (B-Cell Non-Hodgkin's Lymphoma)
Method in brief: as §1

Mewo (Melanoma) = test system: Mewo (Melanoma)
Method in brief: as §1

[12] = test system: CAL-54 (Kidney Carcinoma)
Method in brief: as §1

[13] = test system: 8305C (Thyroid Gland Carcinoma)
Method in brief: as §1

[14] = test system: Hs-633T (Other Solid Carcinomas)
Method in brief: as §1

| SMILES | Bliss excess (SH-4 (Melanoma)) | Bliss excess (NCI-H2795 (Mesothelioma)) | Bliss excess [1] | Bliss excess (NCI-H28 (Mesothelioma)) | Bliss excess [2] | Bliss excess [3] | Bliss excess [4] | Bliss excess [5] | Bliss excess [6] | Bliss excess [7] | Bliss excess (NCI-H2461 (Mesothelioma)) | Bliss excess [8] | Bliss excess [9] | Bliss excess [10] | Bliss excess (HMV-II (Melanoma)) | Bliss excess [11] | Bliss excess (Mewo (Melanoma)) | Bliss excess [12] | Bliss excess [13] | Bliss excess [14] |
| --- | --- | --- | --- | --- | --- | --- | --- | --- | --- | --- | --- | --- | --- | --- | --- | --- | --- | --- | --- | --- |
| Cc1c2c(nn1C)CSCc1cc(n(C)n1)CSc1cc(c3ccccc3c1)OCCCc1c(C(=O)O)n(C)c3c-2c(Cl)ccc13 [AZD5991] + CS(=O)(=O)CCNCc1ccc(-c2ccc3ncnc(Nc4ccc(OCc5cccc(F)c5)c(Cl)c4)c3c2)o1 [Lapatinib] (first compound max 1 µM, 7x7, partner max 10 µM) | -0.01 | -0.016 | -0.0357 | 0.0147 | 0.0453 | 0.0293 | -0.0052 | -0.0369 | 0.0426 | -0.0147 | -0.0273 | -0.0068 | -0.0745 | -0.1 | -0.0587 | 0.0085 | -0.013 | 0.0368 | -0.042 | -0.008 |
| Cc1c2c(nn1C)CSCc1cc(n(C)n1)CSc1cc(c3ccccc3c1)OCCCc1c(C(=O)O)n(C)c3c-2c(Cl)ccc13 [AZD5991] + Nc1ccn([C@@H]2O[C@H](CO)[C@@H](O)C2(F)F)c(=O)n1 [Gemcitabine] (first compound max 1 µM, 7x7, partner max 0.3 µM) | -0.0246 | -0.0687 | -0.0097 | -0.061 | -0.0084 | 0.0217 | -0.0693 | -0.0213 | 0.0012 | -0.0092 | -0.0432 | -0.0133 | -0.0178 | -0.0411 | 0.0013 | 0.0242 | -0.0395 |  | -0.121 | -0.0611 |
| C[C@@H]1COCCN1c1cc(C2([S@](C)(=N)=O)CC2)nc(-c2ccnc3[nH]ccc23)n1 [AZD6738] + C1CC(C1)(C(=O)[O-])C(=O)[O-].N.N.[Pt+2] [Carboplatin] (first compound max 10 µM, 7x7, partner max 10 µM) | -0.057 | -0.0819 | -0.0511 | -0.0606 | -0.03 | -0.074 | -0.0743 | -0.0483 | -0.0217 | -0.0624 | -0.05 | 0.0013 | -0.032 | -0.0614 | -0.0067 | -0.0174 | -0.0192 | -0.0355 | -0.046 | -0.0264 |
| C[C@@H]1COCCN1c1cc(C2([S@](C)(=N)=O)CC2)nc(-c2ccnc3[nH]ccc23)n1 [AZD6738] + Nc1ccn([C@@H]2O[C@H](CO)[C@@H](O)C2(F)F)c(=O)n1 [Gemcitabine] (first compound max 10 µM, 7x7, partner max 0.3 µM) | -0.0029 | -0.0533 | 0.0233 | 0.0086 | 0.115 | 0.061 | -0.0243 | 0.0575 | 0.147 | -0.0254 | -0.0436 | 0.0146 | 0.035 | -0.034 | -0.0112 | 0.118 | 0.0475 | 0.0372 | 0.0252 | 0.0444 |
| Cc1cc2ncnn2cc1Nc1ncc2c(n1)n(C1CCOCC1)c(=O)n2C [AZD7648] + COc1cc([C@@H]2c3cc4c(cc3[C@@H](O[C@@H]3O[C@@H]5CO[C@@H](C)O[C@H]5[C@H](O)[C@H]3O)[C@H]3COC(=O)[C@H]23)OCO4)cc(OC)c1O [Etoposide] (first compound max 10 µM, 7x7, partner max 10 µM) | 0.0744 | -0.0093 | 0.0376 | 0.0548 | 0.152 | 0.11 | 0.0689 | -0.0028 | 0.17 | -0.0034 | 0.0136 | 0.101 | 0.0783 | 0.0224 | 0.0864 | 0.0914 | 0.0524 | 0.0605 | -0.0413 | 0.174 |
| C[C@@H](Nc1cc(F)cc(F)c1)c1cc(C(=O)N(C)C)cc2c(=O)cc(N3CCOCC3)oc12 [AZD8186] + C1CN(CCC1(C(=O)N[C@@H](CCO)C2=CC=C(C=C2)Cl)N)C3=NC=NC4=C3C=CN4 [AZD5363] (first compound max 10 µM, 7x7, partner max 10 µM) | -0.0317 | -0.106 | -0.0305 | -0.0165 | 0.0624 | -0.073 | -0.0372 | -0.0429 | -0.0188 | -0.0755 | -0.0449 | -0.0299 | -0.0566 | -0.086 | -0.0515 | 0.0024 | -0.001 | -0.0774 | -0.0642 | -0.0205 |
| C[C@@H](Nc1cc(F)cc(F)c1)c1cc(C(=O)N(C)C)cc2c(=O)cc(N3CCOCC3)oc12 [AZD8186] + CC(=O)c1c(C)c2cnc(Nc3ccc(N4CCNCC4)cn3)nc2n(C2CCCC2)c1=O [Palbociclib] (first compound max 10 µM, 7x7, partner max 10 µM) | -0.0303 | 0.0582 | -0.022 | -0.0333 | 0.0774 | 0.0138 | -0.0314 | -0.0352 | 0.0396 | -0.0559 | -0.0113 | -0.025 | 0.0121 | -0.0073 | 0.0265 | 0.0418 | -0.0155 | 0.0039 | 0.0133 | 0.05 |
